Reference: patent publication US6127337A, “Bivalent thrombin inhibitors” (National Research Council of Canada, priority 1993, dated 2000)
Values joined by “and” are separate entries in the source; they are usually repeats but may differ in a detail not shown here. Identical values can stand only once. Like-named read-outs stand apart in the source and are kept apart here.

What was measured:
human thrombin [1] = molecular target: T1, human thrombin (Homo sapiens, UniProt P00734); test: Inhibition of amidolytic activity of human thrombin (fluorogenic, Tos-Gly-Pro-Arg-AMC), Ki; assay type: biochemical
T1 construct: Human α-thrombin (3,000 NIH units/mg); purchased Sigma
Method: Materials. The chromogenic and fluorogenic substrates Tosyl-Gly-Pro-Arg-pNAand Tos-Gly-Pro-Arg-AMC were purchased from Boehringer Manheim and Sigma, respectively. […] Initial velocities were recorded at several inhibitor concentrations and kinetic parameters were determined by fitting the data to a general equation describing enzyme inhibition (Segel, 1975). The data were analyzed using the non-linear regression program RNLIN in the IMSL library (IMSL, 1987) on a microVAX™ 3500 computer. […] Fluorogenic assays were conducted using the same conditions and instrument as above operating in the fluorescence mode in the ratio (λex =383 nm, λem =455 nm) Fluorescence intensities were calibrated with 7-amino-4-methyl coumarin solution of known concentration
Determination of Thrombin Inhibitory Dissociation Constants KI
The steady-state velocity was then measured for a few minutes. The compounds of this invention were also pre-incubated with thrombin for 20 min at room temperature before adding the substrate. […] The kinetic data (the steady-state velocity at various concentrations of the substrate and the inhibitors) of the competitive inhibition was analyzed using the methods described by Segel (1975). A non-linear regression program, RNLIN in the IMSL library (IMSL, 1987), LMDER in MINPACK library (More et al., 1980) or Microsoft™ Excell™, was used to estimate the kinetic parameters (Km Vmax and Ki). The biological data are reported on tables I-V.

human thrombin [2] = molecular target: T1, human thrombin; test: Fibrin clotting assay; assay type: biochemical
Excerpt: Abbreviations. The following abbreviations have been used in the specification: Abu, γ-aminobutyric acid; Ac, acetyl; Aca, ε-aminocaproic acid; Aca*, 8-aminocapylic acid; Acha, 1-aminocyclohexane-carboxylic acid; Ada, 12-aminododecanoic acid; AMC, 7-amino-4-methylcoumarin; Aua, 11-aminoundecanoic acid; Ava, δ-aminovaleric acid; Bal, β-alanine; Boc, tert-butyloxycarbonyl; BrBzs, 4-bromobenzenesulfonyl; Bzs, benzene sulfonyl; Cha, β-cyclohexylalanine; Fmoc, 9-fluorenylmethoxycarbonyl;FRE, fibrinogen recognition exo site; HPLC, high performance liquid chromatography; MD805, (2R,4R)-4-methyl-1-[N^α -(3-methyl-1,2,3,4-tetrahydro-8-quinolinesulphonyl-glycyl)-L-arginyl]-2-piperidine carboxylic acid; NAPAP, N^α (2-naphtyl-sulphonyl)-D,L-p-amidinophenylalanyl-piperidide; Nas, naphtylsulfonyl; Nle, norleucine; 3-TAPAP, N^α -(4-toluene-sulphonyl)-D,L-p-amidinophenylalanyl-piperidide; OBzl, benzylester; Pip, pipecolic acid; PPACK, D-Phe-Pro-Arg chloromethylketone; tBbs, 4-tert-butylbenzenesulfonyl; Tic, 1,2,3,4-tetrahydroisoquinoline-3-carboxylic acid; TipBs, 2,4,6 triisopropylbenzenesulfonyl; TFA, trifluoroacetic acid; Tos, tosyl; Tris, 2-amino-2-(hydroxymethyl)-1,3-propanediol. All amino acid residues are L-configuration unless otherwise indicated. IC50 is defined as the inhibitor concentration required to double the clotting time relative to the control; means of three determinants ±SEM.
The fibrin clotting assay was performed in 50 mM Tris HCl buffer (pH 7.52 at 37° C.) containing 0.1 M NaCl and 0.1% poly(ethylene glycol) 8000 with 9.0×10^-10 M (0.1 NIH unit/mL) and 0.03% (w/v) of the final concentrations of human thrombin and bovine fibrinogen, respectively, as reported elsewhere (Szewczuk et al., 1992). The clotting time was plotted against the inhibitor concentrations and the IC50 was estimated as the inhibitor concentration required to double the clotting time relative to the control.

[3] = system: carotid injury-induced thrombosis; test: FeCl3 induced arterial injury model (carotid injury-induced thrombosis); assay type: in vivo; settings: rat; for Dose to double occlusion time: control occlusion time 19 ± 1 min; for Dose to achieve patency at 60 min.: patency defined by no drop in vessel temperature
Method: […]: Rat, male, Sprague-Dawley. Weight: 375-450 g The FeCl3 induced arterial injury model assays were conducted according to Kurz, K. D., Main, […]., Thrombosis research 60; 269-280, 1990 and Schumacher, W. A. et al. J. pharmacology and experimental therapeutics 267; 1237-1242, 1993. Male, Sprague-Dawley (375-450 g) are anesthetized with Urethane (1500 mg/kg IP). Animals are laid on a heating pad which is maintained at 37° C. The carotid artery is approached through a midline cervical incision. Carefully blunt dissection is used to expose and isolate the vessel from the carotid sheath. Using forceps, the artery is lifted to provide clearance to insert two small polyethylene tubing (PE-205) underneath it. The temperature probe (Physitemp MT23/3 )TM is placed between the PE-205 and the artery. The vessel temperature is monitored for 60 minutes after application of FeCl3. Vessel temperature changes are recorded on a thermister (Cole-Palmer Model 08533-41). Injury is induced by application of a small disc (3 mm dia.) of WhatmanTM No.1 filter paper previously dipped in a 35% solution of FeCl3 on the carotid artery above the temperature probe. The site of the experiment is covered with in Aluminum foil in order to protect the FeCl3 from degradation by light. […] Before the start of the experiment, one blood sample is drawn (1 ml) in a tube of 0.105M buffered citrate solution (from the eye's sinus) and the animal is exsanguinated at the end. All the samples are kept on ice and centrifuged as soon as possible at 2000 Rpm for 10 min., 4° C. The plasma is analyzed in duplicate for activated partial thromboplastin time on a haemostasis analyzer (STAGO ST4TM). From a group of four animals, two arteries are stored at -80C for further analysis.

[4] = given intravenously or subcutaneously, depending on the species; cited from earlier work
[5] = Table V, concentration to double the clotting time, read-out: IC50 (dtt)
[6] = Table I, active site directed inhibitors, human thrombin 6.0×10^-11 M, substrate 1-8×10^-5 M, read-out: Ki
[7] = Table I, inhibitor concentration required to double the clotting time, means of three ±SEM, read-out: IC50

Substance | Ki (human thrombin [1]; Table V, read-out: Ki) [nM] | IC50 (human thrombin [2]; [5]) [nM] | Ki (human thrombin [1]; [6]) [nM] | IC50 (human thrombin [2]; [7]) [nM] | Dose to double occlusion time [3] | Dose to achieve patency at 60 min. [3] | further results
Dansyl-Arg-(D-Pipecolic acid)-Abu-NH2 [Peptide P431] | – | – | 980 ± 130 | 2580 ± 680 | – | – | –
Dansyl-Arg-(D-Pipecolic acid)-NH2 [Peptide P429] | – | – | 158 ± 57 | 430 ± 130 | – | – | –
Dansyl-Arg-(D-Tic)-NH2 [Peptide P396] | – | – | 390 ± 20 | 820 ± 150 | – | – | –
Dansyl-Arg-(L-Pip)-Abu-NH2 [Peptide P430] | – | – | 11600 ± 3300 | 39100 ± 7200 | – | – | –
Dansyl-Arg-(L-Pip)-NH2 [Peptide P428] | – | – | 19100 ± 1300 | 37900 ± 1900 | – | – | –
Hirudin | – | – | – | – | – | – | half-life [4]: 30 to 60 min
β-naphthyl sulfonyl-arginyl D-pipecolic acid-(12-aminododecanoic acid)-4-aminobutyric acid)-Asp-Tyr-Glu-Pro-Ile-Pro-Glu-Glu-Ala-(L-β-cyclohexylalanine)-(D- Glu)-OH [Peptide P551] | – | – | – | – | 0.5-1 mg/kg i.v. bolus | 1-2 mg/kg i.v. bolus | Ki (human thrombin [1]; Table IV, results from assay no. 1, read-out: Ki): 0.0033 ± 0.00016 nM; Ki (human thrombin [1]; Table IV, results from assay no. 2, read-out: Ki): 0.0042 ± 0.0002 nM

Further lines, with some results ahead:

Ki (human thrombin [1]; Table V, read-out: Ki) [nM] | IC50 (human thrombin [2]; [5]) [nM] | Ki (human thrombin [1]; [6]) [nM] | IC50 (human thrombin [2]; [7]) [nM] | Substance | Dose to double occlusion time [3] | Dose to achieve patency at 60 min. [3] | further results
5.5 | 55 | – | – | 2,4,6 triisopropylbenzensulfonyl-Arg (D-Pipecolic acid)-(12-aminododecanoicacid)-4-aminobutyric acid)-Asp-Phe-Glu-Pro-Ile-Pro-Tyr-OH [BCH-2444] | – | – | –
0.8 | 4.1 | – | – | 4-bromobenzenesulfonyl-Arg (D-Pipecolic acid)-(12-aminododecanoic acid)-4-aminobutyric acid)- Asp-Phe-Glu-Pro-Ile-Pro-Tyr-OH [BCH-2733] | > 2 mg/kg i.v. bolus | > 2 mg/kg i.v. bolus | Ki (human thrombin [1]; read-out: Ki value): < 1 nM and 0.8 nM
1 | 12 | – | – | tert-butylbezenesulfonyl-Arg (D-Pipecolic acid)-(12-aminododecanoic acid)-4-aminobutyric acid)-Asp-Phe-Glu-Pro-Ile-Pro-Tyr-OH [BCH-2443] | > 4 mg/kg i.v. bolus | > 4 mg/kg i.v. bolus | –
270 | 1100 | – | – | tert-butylbezenesulfonyl-Arg (D-Pipecolic acid)-(12-aminododecanoic acid)-4-aminobutyric acid)-Asp-Phe-Glu-Pro-Ile-Pro-Tyr-OH [BCH-2736] | 4 mg/kg i.v. bolus | > 4 mg/kg i.v. bolus | –
